Values joined by “and” are separate entries in the source; they are usually repeats but may differ in a detail not shown here. Equal entries are not always repeated. Where two headings read alike, the source gives them in different places.
Columns and labels:
H9c2 cardiomyoblasts = assay: MTT cytotoxicity assay, H9c2 cells; format: cell-based, rat; settings: for IC50: MTT, read-out: IC50
Procedure: (§1) For cytotoxicity experiments, cancer cells were seeded at a density of 5,000 (MCF-7), 10,000 (HL-60) or 2,000 cells/well (HCT116 and A549) in 96-well plates (TPP) for 24 h/37°C prior to the addition of examined agents. The non-cancerous cells, 3T3 and H9c2 cells, were cultured for 24 h/37°C in 96-well plates at a density of 10,000 cells/well, the medium was then changed to serum- and pyruvate-free DMEM (Sigma-Aldrich) and incubated with the cells for another 24 h/37°C. The cytotoxic effects of Bp4eT and its metabolites were studied at different concentrations after a 72 h/37°C incubation. In order to aid the dissolution of the lipophilic ligands, 0.1% dimethyl sulfoxide (v/v) (DMSO; Sigma-Aldrich) was present in the culture medium of all groups. At this concentration, DMSO had no effect on cellular proliferation or viability.
(§2) The viability of cells were determined using an MTT assay (Sigma-Aldrich) according to previously established methods. The optical density of soluble MTT was measured at λ = 570 nm, subtracting the λ = 690 nm background using a Tecan Infinite 200M plate reader (Tecan Group, Männedorf, Switzerland). The viability or proliferation of experimental groups was expressed as a percentage of the untreated controls (100%).
(§3) SigmaStat for Windows 3.5 (Systat Software, San Jose, CA, USA) statistical software package was utilized to analyze results. The data are expressed as the mean ± SD of a given number of experiments. Statistical significance was determined using a one-way ANOVA with a Bonferroni post-hoc test or Student’s t-test. The results were considered to be statistically significant when p < 0.05. The IC50 values were calculated using CalcuSyn 2.0 software (Biosoft, Cambridge, UK). Cell cycle analysis was evaluated using MultiCycle AV Software (Phoenix Flow Systems, San Diego, CA, USA).

[1] = MTT cytotoxicity assay, 3T3 cells; format: cell-based, mouse; settings: mouse, 3T3 mouse embryo fibroblasts, 3T3, 10 000 b/j; for viability at 72 h, 1 μM: koncentrace 1 μM; for viability at 72 h, 3 μM: koncentrace 3 μM; for viability at 72 h, 10 μM: koncentrace 10 μM; for viability at 72 h, 30 μM: koncentrace 30 μM; for viability at 72 h, 100 μM: koncentrace 100 μM; for viability at 72 h, 300 μM: koncentrace 300 μM; for viability at 72 h, 1000 μM: koncentrace 1000 μM
Procedure: as §1, §2, §3

[2] = test system: 3T3 mouse embryo fibroblasts; assay: MTT cytotoxicity assay, 3T3 cells; format: cell-based; settings: for MTT viability (0 = 100): 3T3, 10 000 b/j, individual experiments
Procedure: as §1, §2, §3

[3] = individual experiments, read-out: MTT viability (0 = 100)
[4] = mean, read-out: MTT viability (0 = 100), průměr

## CCNC(=O)NN=C(c1ccccc1)c1ccccn1 [E-Bp4eS, 2-benzoylpyridine 4-ethylsemicarbazone]
H9c2 cardiomyoblasts; H9c2, 72 h/37°C, mean ± SD, n ≥ 4
  IC50: 884 ± 279 µM
H9c2 cardiomyoblasts; H9c2, 10 000 b/j, 1 μM, průměr (mean), sheet E-Bp4eS
  MTT, relative to control (0 = 100): 94.39
H9c2 cardiomyoblasts; H9c2, 10 000 b/j, 1 μM, single experiment (date), sheet E-Bp4eS
  MTT, relative to control (0 = 100): 95.7668 and 93.0745 and 94.7872 and 93.9178
H9c2 cardiomyoblasts; H9c2, 10 000 b/j, 3 μM, průměr (mean), sheet E-Bp4eS
  MTT, relative to control (0 = 100): 94.04
H9c2 cardiomyoblasts; H9c2, 10 000 b/j, 3 μM, single experiment (date), sheet E-Bp4eS
  MTT, relative to control (0 = 100): 97.8721 and 90.4272 and 95.5074 and 92.3686
H9c2 cardiomyoblasts; H9c2, 10 000 b/j, 10 μM, průměr (mean), sheet E-Bp4eS
  MTT, relative to control (0 = 100): 92.87
H9c2 cardiomyoblasts; H9c2, 10 000 b/j, 10 μM, single experiment (date), sheet E-Bp4eS
  MTT, relative to control (0 = 100): 97.5948 and 91.5814 and 93.3122 and 89.0018
H9c2 cardiomyoblasts; H9c2, 10 000 b/j, 30 μM, průměr (mean), sheet E-Bp4eS
  MTT, relative to control (0 = 100): 87.33
H9c2 cardiomyoblasts; H9c2, 10 000 b/j, 30 μM, single experiment (date), sheet E-Bp4eS
  MTT, relative to control (0 = 100): 92.2111 and 86.1798 and 89.4636 and 81.4505
H9c2 cardiomyoblasts; H9c2, 10 000 b/j, 100 μM, průměr (mean), sheet E-Bp4eS
  MTT, relative to control (0 = 100): 77.15
H9c2 cardiomyoblasts; H9c2, 10 000 b/j, 100 μM, single experiment (date), sheet E-Bp4eS
  MTT, relative to control (0 = 100): 79.5863 and 76.8996 and 78.6318 and 73.5016
H9c2 cardiomyoblasts; H9c2, 10 000 b/j, 300 μM, průměr (mean), sheet E-Bp4eS
  MTT, relative to control (0 = 100): 65.67
H9c2 cardiomyoblasts; H9c2, 10 000 b/j, 300 μM, single experiment (date), sheet E-Bp4eS
  MTT, relative to control (0 = 100): 61.9338 and 65.3898 and 65.2717 and 70.085
H9c2 cardiomyoblasts; H9c2, 10 000 b/j, 1000 μM, průměr (mean), sheet E-Bp4eS
  MTT, relative to control (0 = 100): 48.11
H9c2 cardiomyoblasts; H9c2, 10 000 b/j, 1000 μM, single experiment (date), sheet E-Bp4eS
  MTT, relative to control (0 = 100): 55.0254 and 43.1142 and 38.2886 and 56.005
H9c2 cardiomyoblasts; H9c2, 10 000 b/j, single experiment (date), sheet E-Bp4eS
  IC50: 683 µM and 1140 µM and 606 µM
H9c2 cardiomyoblasts; Rattus norvegicus, H9c2, H9c2, 10 000 b/j, průměr (mean), sheet E-Bp4eS
  IC50: 884 µM
H9c2 cardiomyoblasts; Rattus norvegicus, H9c2, H9c2, 10 000 b/j, single experiment (date), sheet E-Bp4eS
  IC50: 1100 µM
[1]; [3]
  viability at 72 h, 1 μM: 91%
  viability at 72 h, 3 μM: 96.2%
  viability at 72 h, 10 μM: 91.6%
  viability at 72 h, 30 μM: 86.3%
  viability at 72 h, 100 μM: 87.1%
  viability at 72 h, 300 μM: 85.3%
  viability at 72 h, 1000 μM: 74.1%
[1]; [4]
  viability at 72 h, 1 μM: 98%
  viability at 72 h, 3 μM: 94.8%
  viability at 72 h, 10 μM: 92.9%
  viability at 72 h, 30 μM: 90.2%
  viability at 72 h, 100 μM: 83.9%
  viability at 72 h, 300 μM: 81.5%
  viability at 72 h, 1000 μM: 66.7%
[2]; koncentrace 1 μM
  MTT viability (0 = 100): 96.8721 and 104.341 and 100.156 and 97.6643
[2]; koncentrace 3 μM
  MTT viability (0 = 100): 91.697 and 99.6923 and 92.7572 and 93.5961
[2]; koncentrace 10 μM
  MTT viability (0 = 100): 87.504 and 95.4305 and 94.9836 and 95.1509
[2]; koncentrace 30 μM
  MTT viability (0 = 100): 95.2772 and 94.6873 and 87.6265 and 86.7904
[2]; koncentrace 100 μM
  MTT viability (0 = 100): 89.4336 and 75.046 and 83.8477
[2]; koncentrace 300 μM
  MTT viability (0 = 100): 87.9502 and 69.8243 and 82.8158
[2]; koncentrace 1000 μM
  MTT viability (0 = 100): 61.3011 and 59.7855 and 71.6828
[2]; Mus musculus, Fibroblast, 72 h, 3T3, 72 h/37°C, MTT, mean ± SD, n ≥ 4, read-out: IC50
  IC50: > 1000 µM

From publication PMC4604124, “In Vitro Characterization of the Pharmacological Properties of the Anti-Cancer Chelator, Bp4eT, and Its Phase I Metabolites” (PLoS ONE, 2015)
